Test results taken from patent US20050214738A1, “Conditional allele system” (priority 2003, published 2005).

Biological target: T1, FRB* (Homo sapiens, UniProt P42345+P62942, K2095P/T2098L/W2101F)
T1 construct: The minimal FRB domain comprises amino acids 2025-2114 of human mTor; expressed in transfected cells; host or cells: COS-1 cells
Test: SeAP reporter assay, dimerization of FRB*-VP16 to FKBP3-GAL4DBD in COS-1 cells
Format: cell-based
Source text: Transcription activation by recruitment of chimeric transcriptional activation and DNA binding domains is described. COS-1 cells were electroporated with […] each of the following expression plasmids (Ho, S. N., Biggar, S. R., Spencer, D. M., Schreiber, S. L., and Crabtree, G. R. “Dimeric ligands define a role for transcriptional activation domains in reinitiation.” (1996) Nature 382, 822-826): pG5IL2SX (drives transcription of bacterial secreted alkaline phosphatase (SeAP) through GAL4 DNA binding […] elements), pBJ5-GF3E (which expresses the GAL4 DNA binding domain fused to three copies of human FKBP12), and pBJ5-FRBVP. (which expresses a FRB fusion with the Herpes Simplex Virus VP16 Activation domain) A FRB*-VP16 fusion protein which consists of modified FRB protein fused to the VP16 activation domain was also used selectively. Transfected cells were distributed equally to 96 well plates and were incubated at 37° C. for 24 to 36 hours before media was supplemented with drug in a dilution curve in which each point is represented in quadruplicate. Cells were incubated at 37° C. for an additional 24 hours followed by a 2-hour treatment at 65° C. to inactivate endogenous phosphatases. Each well was supplemented with 100μL of 1 mM methylumbelliferylphosphate dissolved in 2 M diethanolamine buffered to pH 10.0 with carbonate and incubated at 37° C. for 16 hours. Fluorescence was measured with a Fluoroscan (ICN) plate reader at 355 nm transmission and 455 nm emission using Deltasoft software.
Drug efficacy was determined in a three-plasmid transcriptional switch reporter assay. ˜106 COS1 cells were coelectroporated with 2 μg of the DNA binding construct pBJ5-Gal4-FKBP(3), 2 μg pBJ5-VP16 (or the relevant mutant FRB) and 2 μg of the Gal4-SeAP reporter. Electroporation details are available upon request. […] SeAP activity was measured by fluorescence with a Spectamax M2 fluorometer (Molecular Devices, Sunnyvale, Calif.) with transmission set at 355 nm and emmission set at 460 nm. Data was analysed with Softmax Pro (Molecular Devices), Microsoft Excel and Prism 3 (GraphPad Software).

T1 sequence (P42345 2025-2114 K2095P/T2098L/W2101F): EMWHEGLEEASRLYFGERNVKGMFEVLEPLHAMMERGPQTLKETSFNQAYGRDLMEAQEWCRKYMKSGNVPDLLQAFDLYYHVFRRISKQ
T1 sequence (P62942 whole entry, the tested form may be a part): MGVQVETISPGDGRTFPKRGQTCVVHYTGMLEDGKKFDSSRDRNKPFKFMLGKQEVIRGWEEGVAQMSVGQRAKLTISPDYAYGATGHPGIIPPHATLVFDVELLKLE

**Q.** Which results are given for “C20-(R or S)-methallylrapamycin [C20-MaRap]”?
**A.** Kd (FRB*): 3.1 nM; EC50 (FRB*(PLF)-VP16, ±95% confidence intervals): 3.1 ± 0.36 nM
